What was measured:
[1] = test system: mClps; experiment: mClps (procolipase) expression after injection into light-dark mice, Northern blot / RT-PCR; assay type: in vivo, mouse; details: for mClps expression in the liver: injected into light-dark mice, Northern blot
Excerpt: Northern blot and RT-PCR analysis: Tissues were collected and frozen in liquid nitrogen and stored at about -80 C. The total RNA was isolated from mouse livers following standard procedures.^31 Twenty micrograms of total RNA was separated by electrophoresis and transferred onto a nylon membrane. The blots were hybridized with ^32P-labeled cDNA probes, washed and exposed to X-ray film as previously described.^30 Colipase probe was the complete cDNA (e.g., Genbank No: BC042935); the Gapdh probe was the Pst I fragment of rat Gapdh cDNA.^32 The primer pair used to measure colipase expression was SEQ ID NO:1 [NT] and SEQ ID NO:2 [NT], The primer pair used to measure Gapdh expression as an internal control was SEQ ID NO:3 [NT] and SEQ ID NO:4 [NT] 720 by probe for mouse pancreatic lipase related protein 2 (mPlrp2) was generated by RT-PCR using oligos LipaseF SEQ ID NO:5 [NT] and […] NO:6 [NT] from liver mRNA.

[2] = Heart rate at high concentrations; assay type: in vivo
[3] = assay type: in vivo, mouse
Procedure: (§1) They were immediately put into individual 500 ml pre-cooled beakers placed in a chamber at 4° C. […] CBT of the mice was monitored by a digital thermometer (Fisher Scientific, USA, catalog 15-077-8) via a micro stainless steel probe (1 mm) placed 1 cm into the rectal opening of the mouse. Temperature readings were taken at 15-20 sec after insertion of the probe. Once the CBT dropped to 15±1.0° C., mice were then transferred to a regular mouse cage with bedding and kept in an environment chamber at a temperature set at 14±0.5° C. or 15±0.5° C. Mice in SA were visually monitored for arousal. Once arousal was apparent, the animals were returned to standard housing. After 12 h of SA, mice were returned to 20-22° C. AET housing with food and water given ad libitum. For 4 consecutive days after SA, food intakes were determined by weight differential of fresh chow and water after every 24 h at ZT2. Body weight was measured at every ZT2. Respiration rate was determined by placing a mouse inside an open-end 50 ml tube and the number of breaths were determined by counting the number of intakes and exhales over 10 sec intervals.
AET for about 60 min. Markedly different behavioral responses to 4° C. AET were observed. […] In contrast, mice injected with 5′-AMP maintained a relaxed posture and no apparent shivering. […] As CBT dropped below 31° C., the mice retained a considerable cognitive response to tactile stimuli indicating a state of torpor (T). However, when CBT dropped to 18-22° C., the mice lost much of their locomotor mobility but had the ability to reverse flip (RF) to right themselves when they were placed on their backs or sides. When CBT dropped below 17° C., this RF ability was lost and the animals entered a state of SA. When laid on their sides or backs, the mice appeared in a suspended animation state with out-stretched limbs and low respiration rates.
These observations raised questions concerning the relative contribution of 5′-AMP, AET and the CBT in mediating SA. To address these issues, the relationship between 5′-AMP and SA was investigated. […] AET for about 60 min.
AET to await spontaneous arousal.
To identify the driver of SA, the relationship between CBT of mice and the AET was investigated. Once in SA, mice were maintained either at 14±0.5° C. or 15±0.5° C. AET. […] Next, the arousal responses of mice kept at 14±0.5° C. or 15±0.5° C. AET were compared. The majority of mice maintained at 15±0.5° C. AET could spontaneously aroused from SA (FIG. 35b). […] When these mice were subsequently placed at a higher AET, they aroused spontaneously and could enter the S stage. A period of SA longer than 14 h was associated with a decline in the ability of the animal to enter the S stage after arousal by warming. […] The underlying cause(s) of death remains unclear.
Together, the foregoing studies indicate that CBT is a major driver of SA in direct response to a low AET. To obtain additional support for this conclusion, the effects of AET on the recovery rate from SA was investigated. Groups of mice (n=4) in SA with a CBT of about 15° C. were transferred into environments with increasing AET's. The time required for each animal's CBT to return to 37° C. was measured (FIG. 35c). A direct correlation between the increase in AET and the recovery rate from SA was seen. To determine whether there were any long-term negative effects from SA, food intake and body weight were measured for several days as an indirect assessment of health status. Mice (n=4) that exited SA spontaneously were used for these studies.

[4] = HPLC analysis of adenylates in blood, liver and muscle during SA; details: mice in SA given a second injection, red blood cells, 2 hours later
Procedure: HPLC analysis for adenine nucleotides: Blood was rapidly removed from mice and frozen in liquid Nitrogen. Nucleotides were extracted from frozen samples using about 0.4 N perchloric acid as previously described.^35 Briefly, about 425 μl of ice-cold about 0.4 N perchloric acid was added to frozen blood samples and mixed. After about 10 μl was removed for protein determination, the remainder was centrifuged at about 14,000×g for about 10 minutes at about 4° C. The supernatant (e.g., 305 μl) was transferred to a clean tube, neutralized with about 178 μl of about 0.6 M KHCO3/about 0.72 M KOH and acidified with about 55 μl of about 0.18 M ammonium phosphate solution (pH 5.1) and one drop of dilute phosphoric acid. The samples were centrifuged and the supernatants were stored at about −80° C. for analysis. Blood extracts and adenine nucleotides ATP, ADP, AMP, c-AMP and adenosine (e.g., from Sigma, MO, USA) were separated and quantified using reversed-phase HPLC (e.g., Waters, Millipore Corp., Bedford, Mass.) analysis on a Partisphere bonded phase reverse phase C18 cartridge column at a flow rate of 1.5 ml/minutes.^36 The mobile phase was 0.02 M NH4H2PO4, pH 5.1, with a superimposed methanol gradient: about 0% for about 0-4 minutes, about 0-8% for about 4-6 minutes, about 8-20% for about 6-8 minutes, and about 20% for about 8-18 minutes.

[5] = Daily injection of 5′-AMP into morbid obese Ob/Ob mice: body weight and food intake; assay type: in vivo; details: Ob/Ob mouse, daily injection 5 then 2.5 umol/gbw, compared with saline
Excerpt: This was then decrease to 2.5 umol/gbw for the rest of the studies.

[6] = Blood glucose after 5′-AMP injection; assay type: in vivo, mouse; details: injections
[7] = Serum glucose and liver procolipase expression during SA and arousal; assay type: in vivo, mouse
Procedure: as §1, with “Experimental Procedures. Each mouse was injected intraperitoneally (IP) with the appropriate dosages of 5'-AMP (Sigma catalog# […]) dissolved in phosphate buffered saline. They were” for “They were”, “15±0.5° C. […] CBT. Mice in” for “15±0.5° C. Mice in”, “given ad labitum. For 4” for “given ad libitum. For 4”, “fresh chow every 24” for “fresh chow and water after every 24”, “sec intervals. These studies were carried out under institutionally approved animal protocol HSC-AWC 04-022. Analysis of serum glucose sample from mice at 2-3 h into SA was about 60% higher than control animals with CBT of 37° C. However, the serum blood glucose level drops to 40% below control animals at spontaneous arousal. […] A decline in blood glucose level can be reversed by increasing gluconeogenesis and reduced glucose need of major organs through β-oxidation of fatty acids. […] Liver RNA obtained from mice in normal state, SA, arousal by rewarming and spontaneous arousal was analyzed for procolipase expression by Northern blot analysis. […]” for “sec intervals.”

[8] = test system: AMPK; details: rat muscle, via AMPK; cited from earlier work
[9] = cited from earlier work
[10] = IP, above 0.25 mg/gbw, chamber at 4° C.
[11] = mouse, 4° C. environment for the cooling phase

In the case of `Nc1ncnc2c1ncn2[C@@H]1O[C@H](COP(=O)(O)O)[C@@H](O)[C@H]1O` [5′-AMP, 5′-adenosine monophosphate], the “mClps expression in peripheral tissues” value ([1]; RT-PCR) is reported as “detected in all peripheral tissues sampled except the brain”, the “mClps expression in the liver” value [1] is reported as “induced mClps expression” and the heart rate [2] is reported as “slows the heart rate”. The CBT after injection (high dose, from about 37° C., during about the first hour, ambient room temperature 24° C.) was “about 27 °C”, the “adverse effects on the torpid mice” value (mouse, in vivo) was “No apparent adverse effects” and the length of torpor (various dosages, wild type mice) was “dependent on the dosage”. For the same compound, the “length of SA as a function of 5′-AMP dose” value ([3]; 0.25 to 1.5 mg/gbw, maintained at 15±0.5° C. AET until spontaneous arousal) was “considerable overlap in the arousal time”, the “effective dosage (ED50) that induced at least 50% of the mice to enter SA” value ([3]; IP, 4° C. AET for about 60 min, CBT reduction to at least 15° C.) was 0.125 mg/gbw and the CBT reached [3, 10] was 15±1.0 °C. The thermo-regulatory responses [3, 10] was “blocked all thermo-regulatory responses”, the “time for CBT drop” value ([3]; IP, above 0.25 mg/gbw, chamber at 4° C., CBT to 15±1.0° C.) was 60 ± 10 min and the “CBT above ambient environmental temperature (AET) during SA” value ([3]; mice in SA) was 1-2 °C. For the same compound, the “dose that can induce deep torpor” value ([3]; mouse) was 5-7.5 mg/g body weight, the “ED50 for inducing torpor” value [3, 11] was “approximately 0.15 mg/gram body weight” and the “ED100 for inducing torpor” value [3, 11] was “approximately 0.25 mg/g body weight”. The “body weight after SA” value ([3]; mouse, in vivo) was “no significant difference in body weight”, the “food intake after SA” value ([3]; mouse, in vivo) was “moderately lower food intake” and the “respiration rate in SA” value ([3]; normal about 120 breaths per min, CBT below 17° C.) was “reduced by at least two-thirds”. The “ATP level after a second injection” value [4] was “steep drop in ATP level”, the body weight [5] was “weight loss” and the “satiety / food intake” value [5] was “lower satiety”. For the same compound, the blood glucose levels [6] was “reduce the blood glucose levels”, the “serum glucose higher than control animals” value ([7]; 2-3 h into SA, control CBT 37° C.) was “about 60%” and the “serum blood glucose below control animals” value ([7]; at spontaneous arousal) was 40%. The “procolipase expression in liver” value ([7]; mice that had aroused spontaneously, Northern blot) was “robust level of procolipase expression”.
For `Nc1ncnc2c1ncn2[C@@H]1O[C@H](COP(=O)(O)OP(=O)(O)O)[C@@H](O)[C@H]1O` [ADP, adenosine 5′-diphosphate], the “mClps expression in the liver” value [1] was “did not induce mClps expression”.
For `NC(=O)c1ncn([C@@H]2O[C@H](CO)[C@@H](O)[C@H]2O)c1N` [AICAR, 5-aminoimidazole-4-carboxamide ribonucleoside], the fatty acid oxidation [8] is given as “increase fatty acid oxidation”.
In the case of `Nc1ncnc2c1ncn2[C@@H]1O[C@H](COP(=O)(O)OP(=O)(O)OP(=O)(O)O)[C@@H](O)[C@H]1O` [ATP], the “mClps expression in the liver” value [1] is reported as “did not induce mClps expression”.
For `CCNC(=O)[C@H]1O[C@@H](n2cnc3c(N)ncnc32)[C@H](O)[C@@H]1O` [NECA], the “mClps expression in the liver” value [1] was “did not induce colipase expression”.
In the case of `Nc1ncnc2c1ncn2[C@@H]1O[C@H](CO)[C@@H](O)[C@H]1O` [adenosine], the “mClps expression in the liver” value [1] is given as “induced mClps expression” and the water solubility [9] is given as “very low”.
With `Nc1ncnc2c1ncn2[C@@H]1O[C@@H]2COP(=O)(O)O[C@H]2[C@H]1O` [c-AMP] the “mClps expression in the liver” value [1] was “did not induce mClps expression”.

— patent publication US20110059916A1, “Methods and Compositions for Inducing Torpor in a Subject” (priority 2006, published 2011)
